≈ marks a conversion by molar mass, not a printed value.
Tests used:
Staphylococcus aureus [1] = assay: Antibacterial activity against methicillin-resistant Staphylococcus aureus USA300 incubated for 18 to 20 hrs by broth microdilution method; type: functional; details: time 18-20 hrs
Staphylococcus aureus [2] = assay: Antibacterial activity against Vancomycin-resistant Staphylococcus aureus 10 incubated for 18 to 20 hrs by broth microdilution method; type: functional; details: time 18-20 hrs
Staphylococcus aureus [3] = assay: Antibacterial activity against methicillin-sensitive Staphylococcus aureus ATCC 6538 incubated for 18 to 20 hrs by broth microdilution method; type: functional; details: time 18-20 hrs
Staphylococcus aureus [4] = assay: Antibacterial activity against methicillin-resistant Staphylococcus aureus NRS 123 (USA400) incubated for 18 to 20 hrs by broth microdilution method; type: functional; details: time 18-20 hrs
Staphylococcus aureus [5] = assay: Induction of drug resistance in methicillin-resistant Staphylococcus aureus USA400 NRS 123 assessed as fold increase in MIC measured after 15 passages by broth microdilution assay; type: functional
Staphylococcus aureus [6] = assay: Antibacterial activity against Vancomycin-resistant Staphylococcus aureus 9 incubated for 18 to 20 hrs by broth microdilution method; type: functional; details: time 18-20 hrs
Staphylococcus aureus [7] = assay: Antibacterial activity against methicillin-resistant Staphylococcus aureus NRS 385 (USA500) incubated for 18 to 20 hrs by broth microdilution method; type: functional; details: time 18-20 hrs
[8] = test system: Staphylococcus epidermidis; assay: Antibacterial activity against Staphylococcus epidermidis NRS 101 incubated for 18 to 20 hrs by broth microdilution method; type: functional; details: time 18-20 hrs
[9] = Cytotoxicity against human Caco-2 cells assessed as cell viability at upto 128 ug/ml incubated for 24 hrs by MTS assay relative to control; type: toxicity, cell-based; details: up to 128 µg/mL, read-out: Activity
Staphylococcus aureus [10] = assay: Antibacterial activity against methicillin-resistant Staphylococcus aureus NRS 384 (USA300) incubated for 18 to 20 hrs by broth microdilution method; type: functional; details: time 18-20 hrs
Staphylococcus aureus [11] = assay: Antibacterial activity against Vancomycin-resistant Staphylococcus aureus 12 incubated for 18 to 20 hrs by broth microdilution method; type: functional; details: time 18-20 hrs
Staphylococcus aureus [12] = assay: Antibacterial activity against methicillin-sensitive Staphylococcus aureus NRS 107 incubated for 18 to 20 hrs by broth microdilution method; type: functional; details: time 18-20 hrs
Staphylococcus aureus [13] = assay: Antibacterial activity against methicillin-resistant Staphylococcus aureus NRS 119 incubated for 18 to 20 hrs by broth microdilution method; type: functional; details: time 18-20 hrs
[14] = Cytotoxicity against human HaCaT cells assessed as cell viability upto 128 ug/ml incubated for 24 hrs by MTS assay relative to control; type: toxicity, cell-based; details: up to 128 µg/mL, read-out: Activity
Staphylococcus aureus [15] = assay: Antibacterial activity against methicillin-resistant Staphylococcus aureus USA400 NRS 123 assessed as time of post-antibiotic effect at 5 times MIC incubated for 2 hrs followed by compound washout and measured every single 1 hr; type: functional
Staphylococcus aureus [16] = assay: Antibacterial activity against methicillin-resistant Staphylococcus aureus NRS 386 (USA700) incubated for 18 to 20 hrs by broth microdilution method; type: functional; details: time 18-20 hrs
Staphylococcus aureus [17] = assay: Induction of drug resistance in methicillin-resistant Staphylococcus aureus USA400 NRS 123 assessed as fold increase in MIC measured after 7 passages by broth microdilution assay; type: functional
Staphylococcus aureus [18] = assay: microbe, parasite or virus in culture; details: 13
Staphylococcus aureus [19] = assay: microbe, parasite or virus in culture; details: 1
Staphylococcus aureus [20] = assay: microbe, parasite or virus in culture; details: 3b
Staphylococcus aureus [21] = assay: microbe, parasite or virus in culture; details: 2
Staphylococcus aureus [22] = assay: microbe, parasite or virus in culture; details: 3a
Caco-2 [23] = assay: Cytotoxicity against human Caco-2 cells at 128 ug/ml incubated for 24 hrs by MTS assay; type: toxicity, cell-based; details: caco-2, 24 h, dose 128 µg/ml
Caco-2 [24] = assay: Cytotoxicity against human Caco-2 cells assessed as reduction in cell viability at 64 ug/ml incubated for 24 hrs by MTS assay; type: toxicity, cell-based; details: caco-2, 24 h, dose 64 µg/ml
[25] = Cytotoxicity against human HaCaT cells assessed as cell viability at 64 ug/ml incubated for 24 hrs by MTS assay relative to control; type: toxicity, cell-based; details: at 64 µg/mL, read-out: Activity

SMILES | MIC (Staphylococcus aureus [1]) [mg/L] | MIC (Staphylococcus aureus [2]) [mg/L] | MIC (Staphylococcus aureus [3]) [mg/L] | MIC (Staphylococcus aureus [4]) [mg/L] | MIC (Staphylococcus aureus [6]) [mg/L] | MIC [8] [mg/L] | MIC (Staphylococcus aureus [10]) [mg/L] | MIC (Staphylococcus aureus [11]) [mg/L] | MIC (Staphylococcus aureus [12]) [mg/L] | MIC (Staphylococcus aureus [13]) [mg/L] | Time (Staphylococcus aureus [15]) [h] | other results
C/C(=N\NC(=N)N)c1ccc(NC(=O)Nc2ccc(-c3ccccc3)cc2)cc1 | 4 (≈ 10.4 µM) |  |  |  |  |  |  |  |  |  |  | 
C/C(=N\NC(=N)N)c1ccc(NC(=O)Nc2ccc(-c3cccs3)cc2)cc1 | 4 (≈ 10.2 µM) | 16 (≈ 40.8 µM) | 4 (≈ 10.2 µM) | 4 (≈ 10.2 µM) | 8 (≈ 20.4 µM) | 8 (≈ 20.4 µM) | 4 (≈ 10.2 µM) | 8 (≈ 20.4 µM) | 2 (≈ 5.1 µM) | 16 (≈ 40.8 µM) | 3 | fold change (FC) (Staphylococcus aureus [5]): 1; MIC (Staphylococcus aureus [7]): 8 mg/L (≈ 20.4 µM); viability at 24 h [9]: 100%; viability at 24 h [14]: 100%; MIC (Staphylococcus aureus [16]): 4 mg/L (≈ 10.2 µM)
C/C(=N\NC(=N)N)c1ccc(NC(=O)Nc2ccc(Cc3ccccc3)cc2)cc1 | 4 (≈ 9.99 µM) |  |  |  |  |  |  |  |  |  |  | 
C/C(=N\NC(=N)N)c1ccc(NC(=O)Nc2ccc(-c3ccccc3C)cc2)cc1 | 4 (≈ 9.99 µM) |  |  |  |  |  |  |  |  |  |  | 
C/C(=N\NC(=N)N)c1ccc(NC(=O)Nc2ccc(C3CCC3)cc2)cc1 | ≥ 64 |  |  |  |  |  |  |  |  |  |  | 
CO[C@H]1/C=C/O[C@@]2(C)Oc3c(C)c(O)c4c(O)c(c(/C=N/N5CCN(C)CC5)c(O)c4c3C2=O)NC(=O)/C(C)=C\C=C\[C@H](C)[C@H](O)[C@@H](C)[C@@H](O)[C@@H](C)[C@H](OC(C)=O)[C@@H]1C |  |  |  |  |  |  |  |  |  |  |  | fold change (FC) (Staphylococcus aureus [5]): > 500000; fold change (FC) (Staphylococcus aureus [17]): 8
C/C(=N\NC(=N)N)c1ccc(NC(=O)Nc2ccc(-c3cc4ccccc4o3)cc2)cc1 | 4 (≈ 9.38 µM) |  |  |  |  |  |  |  |  |  |  | 
CN[C@H](CC(C)C)C(=O)N[C@H]1C(=O)N[C@@H](CC(N)=O)C(=O)N[C@H]2C(=O)N[C@H]3C(=O)N[C@H](C(=O)N[C@H](C(=O)O)c4cc(O)cc(O)c4-c4cc3ccc4O)[C@H](O)c3ccc(c(Cl)c3)Oc3cc2cc(c3O[C@@H]2O[C@H](CO)[C@@H](O)[C@H](O)[C@H]2O[C@H]2C[C@](C)(N)[C@H](O)[C@H](C)O2)Oc2ccc(cc2Cl)[C@H]1O [VANCOMYCIN] |  | 64 (≈ 44.2 µM) |  |  | > 64 |  |  | > 64 |  |  | 3 | MIC (Staphylococcus aureus [18]): > 512 mg/L; MIC (Staphylococcus aureus [19]): 64 mg/L (≈ 44.2 µM); MIC (Staphylococcus aureus [20]): 64 mg/L (≈ 44.2 µM); MIC (Staphylococcus aureus [21]): 64 mg/L (≈ 44.2 µM); MIC (Staphylococcus aureus [22]): 64 mg/L (≈ 44.2 µM)
C/C(=N\NC(=N)N)c1ccc(NC(=O)Nc2ccc(-c3cccnc3)cc2)cc1 | 4 (≈ 10.3 µM) |  |  |  |  |  |  |  |  |  |  | 
C/C(=N\NC(=N)N)c1ccc(NC(=O)Nc2ccc(/C=C/c3ccccc3)cc2)cc1 |  | 8 (≈ 19.4 µM) | 16 (≈ 38.8 µM) | 4 (≈ 9.7 µM) | 16 (≈ 38.8 µM) | 8 (≈ 19.4 µM) | 2 (≈ 4.85 µM) | 8 (≈ 19.4 µM) | 8 (≈ 19.4 µM) | 16 (≈ 38.8 µM) | 3 | fold change (FC) (Staphylococcus aureus [5]): 1; Activity (Caco-2 [23]): Toxic; MIC (Staphylococcus aureus [7]): 8 mg/L (≈ 19.4 µM); Activity (Caco-2 [24]): Non-Toxic; viability at 24 h, 64 ug/ml [25]: 100%; MIC (Staphylococcus aureus [16]): 4 mg/L (≈ 9.7 µM)
C/C(=N\NC(=N)N)c1ccc(NC(=O)Nc2ccc(-c3cccc(C)c3)cc2)cc1 | 4 (≈ 9.99 µM) |  |  |  |  |  |  |  |  |  |  | 
C/C(=N\NC(=N)N)c1ccc(NC(=O)Nc2ccc(/C=C/C3CCCCC3)cc2)cc1 |  | 8 (≈ 19.1 µM) | 4 (≈ 9.56 µM) | 4 (≈ 9.56 µM) | 8 (≈ 19.1 µM) | 8 (≈ 19.1 µM) | 2 (≈ 4.78 µM) | 8 (≈ 19.1 µM) | 4 (≈ 9.56 µM) | 4 (≈ 9.56 µM) | 6 | MIC (Staphylococcus aureus [7]): 8 mg/L (≈ 19.1 µM); viability at 24 h [9]: 100%; viability at 24 h, 64 ug/ml [25]: 100%; MIC (Staphylococcus aureus [16]): 8 mg/L (≈ 19.1 µM)
CC(=O)NC[C@H]1CN(c2ccc(N3CCOCC3)c(F)c2)C(=O)O1 [LINEZOLID] |  | 1 (≈ 2.96 µM) | 1 (≈ 2.96 µM) | 1 (≈ 2.96 µM) | 1 (≈ 2.96 µM) | 1 (≈ 2.96 µM) | 1 (≈ 2.96 µM) |  | 1 (≈ 2.96 µM) | 32 (≈ 94.9 µM) |  | 
